Test results taken from paper PMC8989062 (Journal of medicinal chemistry, 2022).
Entries after “also recorded” stand apart in the source; their conditions may differ.

Columns and labels:
HIV = details: cited from earlier work
[1] = test system: H3K122Ac (HAT activity of BRD4); experiment: immunofluorescence staining of H3K122Ac in hSAECs; format: cell-based, human
[2] = test system: H3K122Ac (HAT activity of BRD4); experiment: immunofluorescence staining of H3K122Ac in lung sections of mice; details: n = 5
BRD4 BD1 E151A mutant = BRD4 BD1 E151A mutant (Homo sapiens, UniProt O60885, E151A); experiment: thermal shift assay; details: TSA, 5 μM protein
[3] = cited from earlier work
IL-6 = experiment: poly; details: for activity at 10 µM: Homo sapiens, read-out: Residual activity rate, IL-6 (%)
[4] = test system: poly(I:C)-induced BRD4-dependent acute airway inflammation; experiment: murine model of poly; format: in vivo, C57BL/6J mice; details: mice, 10 mg/kg po
CIG5 = experiment: poly; details: Homo sapiens, read-out: Residual activity rate, CIG5 (%)
[5] = in vivo PK profiles in rats; details: rat
[6] = test system: BET BD1 and BD2 bromodomains; details: SPR; cited from earlier work
[7] = in vivo; cited from earlier work

In the case of `Cc1sc2c(c1C)C(c1ccc(Cl)cc1)=N[C@@H](CC(=O)OC(C)(C)C)c1nnc(C)n1-2` [Compound 3, reference compound], the “effect on latent HIV” value (HIV) is listed as “activate latent HIV”, the “poly(I:C)-induced H3K122Ac accumulation in hSAECs” value [1] is listed as “blocked” and the “poly(I:C)-induced H3K122Ac accumulation in lung tissue of mice” value [2] is listed as “blocked”. For the same molecule, the “binding to E151A mutant of BRD4 BD1 compared with WT” value (BRD4 BD1 E151A mutant) was “maintained a similar binding activity”.

In the case of `Cc1cc(/N=N/c2ccc(S(=O)(=O)NC3CCCC3)cc2)c(N)cc1O` [Compound 7], the oral bioavailability [3] is given as 0.5%, the “AUC0–t” value ([3]; oral dose of 20 mg/kg) is given as 104 ng·h/mL and the Cmax ([3]; oral dose of 20 mg/kg) is given as 36 ng/mL.

For `O=C(Nc1ccc(C(F)(F)F)cc1)Nc1ccc(S(=O)(=O)N2CCC[C@H]2C(=O)Nc2ccccc2)cc1` [Compound 45, (S)-N-Phenyl-1-((4-(3-(4-(trifluoromethyl)phenyl)ureido)phenyl)-sulfonyl)pyrrolidine-2-carboxamide], the “effect on HIV” value (HIV) is given as “epigenetically suppress HIV”.

For `O=C(Nc1ccc(C(F)(F)F)cc1)Nc1ccc(S(=O)(=O)N2CCC[C@H]2CO)cc1` [Compound 50, (S)-1-(4-((2-(Hydroxymethyl)pyrrolidin-1-yl)sulfonyl)phenyl)-3-(4 (trifluoromethyl)phenyl)urea], the activity at 10 µM (IL-6) was 1.71 ± 0.13%.

For `O=C(Nc1ccc(C(F)(F)F)cc1)Nc1ccc(S(=O)(=O)N2CCC[C@H]2CN2CCOCC2)cc1` [Compound 52, (S)-1-(4-((2-(Morpholinomethyl)pyrrolidin-1-yl)sulfonyl)phenyl)-3-(4-(trifluoromethyl)phenyl)urea], the “poly(I:C)-induced BRD4-dependent acute airway inflammation, overall” value [4] was “more efficacious”, the “poly(I:C)-induced neutrophilic inflammation around small- and medium-sized airways (histology)” value [4] was “completely inhibited” and the “inflammatory cytokines (IL-6, KC, MCP-1, RANTES) in BALF” value ([4]; n = 5, 10 mg/kg) was “significantly attenuated; also recorded: blocked”. The “inflammatory gene expression (IL-6, KC, ISG54, CIG5) in lung tissues” value ([4]; n = 5, 10 mg/kg) was “significantly attenuated; also recorded: blocked”, the “total cells and neutrophils in BALF” value ([4]; n = 5, 10 mg/kg) was “significantly attenuated; also recorded: blocked” and the “poly(I:C)-induced H3K122Ac accumulation in hSAECs” value [1] was “significantly blocked”. For the same molecule, the “poly(I:C)-induced H3K122Ac accumulation in lung tissue of mice” value [2] was “significantly blocked”, the activity at 10 µM (IL-6) was 0.35 ± 0.03% and the activity at 10 µM (CIG5) was 0.34 ± 0.025%. For the same molecule, the “binding to E151A mutant of BRD4 BD1 compared with WT” value (BRD4 BD1 E151A mutant) was “complete loss of its binding affinity” and the “improvement of oral bioavailability compared to compound 7” value [5] was “approximately 30 fold”.

For `O=C(Nc1ccc(C(F)(F)F)cc1)Nc1ccc(S(=O)(=O)N2CCC[C@H]2CN2CCC(O)CC2)cc1` [Compound 53, (S)-1-(4-((2-((4-Hydroxypiperidin-1-yl)methyl)pyrrolidin-1-yl)-sulfonyl)phenyl)-3-(4-(trifluoromethyl)phenyl)urea], the “poly(I:C)-induced H3K122Ac accumulation in hSAECs” value [1] was “significantly blocked”, the “poly(I:C)-induced H3K122Ac accumulation in lung tissue of mice” value [2] was “significantly blocked” and the “fold more potent than compound 1, IL-6” value (IL-6; ratio of IC50 values) was 15.9 fold. For the same molecule, the “fold more potent than compound 3, IL-6” value (IL-6; ratio of IC50 values) was 4.8 fold.

In the case of `CC(=O)Nc1c(F)cc(C(=O)N[C@H]2CC[C@H](O)CC2)cc1O[C@@H](C)c1ccccc1` [GSK046], the “selectivity BET BD2 over BD1” value [6] is listed as greater than 300 fold.

In the case of `COCc1nc2cnc3cc(-c4c(C)noc4C)c(OC[C@H]4CCNC4)cc3c2n1[C@H](C)c1ccccc1` [GSK778], the “selectivity BET BD1 over BD2” value [6] is listed as greater than 130 fold.

For `COc1cc(OC)c2c(=O)cc(-c3cc(C)c(OC[C@H](O)CN4CCN(C)CC4)c(C)c3)oc2c1` [ZL0516, (R)-2-(4-(2-hydroxy-3-(4-methylpiperazin-1-yl)propoxy)-3,5-dimethylphenyl)-5,7-di-methoxy-4H-chromen-4-one], the “oral bioavailability F” value [7] is given as 35%.
